Patent US20240101540A1, “TARGETED PROTEIN DEGRADATION OF PARP14 FOR USE IN THERAPY” (Ribon Therapeutics, Inc., priority 2022, published 2024)
Where a name gives a salt, the structure may show the parent alone.

Target: T1, HiBiT tagged PARP14 (Homo sapiens, UniProt Q460N5)
T1 construct: engineered to contain a HiBiT tag on both alleles of the PARP14 gene; endogenous in cells; host or cells: Jurkat cells stably transfected with LgBiT (Promega), PARP14 locus edited by CRISPR/Cas9
Assay: HiBiT assay for the degradation of PARP14 (HiBiT tagged PARP14 in LgBiT expressing Jurkat cells, 2 or 24 hours)
Format: cell-based
Conditions: Assay B (Example B): HiBiT tagged PARP14 degradation in LgBiT expressing Jurkat cells, read-out: DC50
Outline: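 Jurkat cells stably expressing LgBiT with CRISPR knock-in of C-terminal HiBiT on both PARP14 alleles, 5,000 cells/well, treated with compound dose-response at 37 °C for 2 or 24 h. Live Cell Substrate luminescence normalised to 0.1% DMSO wells; DC50 from 4-parameter fit with floating top, bottom, Hill.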

T1 sequence (Q460N5 whole entry): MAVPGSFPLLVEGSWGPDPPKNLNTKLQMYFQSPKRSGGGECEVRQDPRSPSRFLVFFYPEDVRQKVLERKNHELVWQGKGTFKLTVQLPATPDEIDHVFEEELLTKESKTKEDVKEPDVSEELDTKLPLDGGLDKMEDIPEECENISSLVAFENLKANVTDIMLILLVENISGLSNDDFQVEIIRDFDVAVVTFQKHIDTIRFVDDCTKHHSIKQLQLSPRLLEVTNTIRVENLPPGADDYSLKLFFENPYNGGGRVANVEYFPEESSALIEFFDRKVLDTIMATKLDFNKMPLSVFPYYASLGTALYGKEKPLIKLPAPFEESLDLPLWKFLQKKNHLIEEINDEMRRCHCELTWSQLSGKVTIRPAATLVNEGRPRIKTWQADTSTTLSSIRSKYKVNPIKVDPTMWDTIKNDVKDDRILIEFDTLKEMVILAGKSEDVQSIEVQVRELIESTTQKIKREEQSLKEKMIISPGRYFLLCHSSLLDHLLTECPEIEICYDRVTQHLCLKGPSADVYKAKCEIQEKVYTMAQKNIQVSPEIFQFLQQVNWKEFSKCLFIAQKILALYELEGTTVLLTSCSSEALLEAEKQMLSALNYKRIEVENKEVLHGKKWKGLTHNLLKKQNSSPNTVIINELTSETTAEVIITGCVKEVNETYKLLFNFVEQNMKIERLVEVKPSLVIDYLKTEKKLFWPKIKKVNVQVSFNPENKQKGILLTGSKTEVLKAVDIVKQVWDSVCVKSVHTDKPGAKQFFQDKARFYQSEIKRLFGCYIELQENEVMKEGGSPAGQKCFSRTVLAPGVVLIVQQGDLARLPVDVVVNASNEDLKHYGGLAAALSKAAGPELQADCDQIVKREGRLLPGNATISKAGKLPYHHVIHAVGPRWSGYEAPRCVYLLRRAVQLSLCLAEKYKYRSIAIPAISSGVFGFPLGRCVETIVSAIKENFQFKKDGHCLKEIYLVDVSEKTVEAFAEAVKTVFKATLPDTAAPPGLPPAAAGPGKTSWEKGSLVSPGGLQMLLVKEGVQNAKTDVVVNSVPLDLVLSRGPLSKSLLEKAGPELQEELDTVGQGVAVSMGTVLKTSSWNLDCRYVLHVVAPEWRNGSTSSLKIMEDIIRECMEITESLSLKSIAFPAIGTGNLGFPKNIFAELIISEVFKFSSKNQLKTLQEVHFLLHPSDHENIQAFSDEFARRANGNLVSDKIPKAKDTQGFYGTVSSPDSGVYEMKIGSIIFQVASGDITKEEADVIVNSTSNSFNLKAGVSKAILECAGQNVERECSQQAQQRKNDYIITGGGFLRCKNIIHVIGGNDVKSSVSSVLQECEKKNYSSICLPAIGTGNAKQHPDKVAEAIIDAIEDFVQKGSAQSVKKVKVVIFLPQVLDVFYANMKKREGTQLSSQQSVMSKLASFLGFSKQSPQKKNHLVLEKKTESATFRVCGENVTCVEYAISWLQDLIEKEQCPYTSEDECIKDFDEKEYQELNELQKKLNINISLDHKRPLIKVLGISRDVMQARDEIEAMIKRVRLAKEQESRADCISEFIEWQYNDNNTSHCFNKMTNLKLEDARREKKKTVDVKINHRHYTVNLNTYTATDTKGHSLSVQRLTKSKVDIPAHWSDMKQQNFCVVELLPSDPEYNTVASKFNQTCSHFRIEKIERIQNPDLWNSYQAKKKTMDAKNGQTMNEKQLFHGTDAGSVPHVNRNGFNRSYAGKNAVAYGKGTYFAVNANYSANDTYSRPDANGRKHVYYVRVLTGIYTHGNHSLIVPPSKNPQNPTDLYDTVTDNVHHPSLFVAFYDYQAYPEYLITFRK

| DC50 [µM] | Structure (SMILES) |
| --- | --- |
| < 0.03 | Cn1nc(N2CCC(=O)NC2=O)c2cccc(C3CCN(CCN4CCC(COc5cc(F)c6c(=O)[nH]c(COC7CCOCC7)nc6c5)CC4)CC3)c21 [Example 203, 1-(7-(1-(2-(4-(((5-fluoro-4-oxo-2-(((tetrahydro-2H-pyran-4-yl)oxy)methyl)-3,4-dihydroquinazolin-7-yl)oxy)methyl)piperidin-1-yl)ethyl)piperidin-4-yl)-1-methyl-1H-indazol-3-yl)dihydropyrimidine-2,4(1H,3H)-dione] |
| < 0.03 | O=C1CCN(c2ccc(C3CCN(CCN4CCC(COc5cc(F)c6c(=O)[nH]c(COC7CCOCC7)nc6c5)CC4)CC3)c(F)c2)C(=O)N1 [Example 204, 1-(3-fluoro-4-(1-(2-(4-(((5-fluoro-4-oxo-2-(((tetrahydro-2H-pyran-4-yl)oxy)methyl)-3,4-dihydroquinazolin-7-yl)oxy)methyl)piperidin-1-yl)ethyl)piperidin-4-yl)phenyl)dihydropyrimidine-2,4(1H,3H)-dione] |
| < 0.03 | Cn1nc(N2CCC(=O)NC2=O)c2ccc(C3CCN(CCN4CCC(COc5cc(F)c6c(=O)[nH]c(COC7CCOCC7)nc6c5)CC4)CC3)c(F)c21 [Example 205, 1-(7-fluoro-6-(1-(2-(4-(((5-fluoro-4-oxo-2-(((tetrahydro-2H-pyran-4-yl)oxy)methyl)-3,4-dihydroquinazolin-7-yl)oxy)methyl)piperidin-1-yl)ethyl)piperidin-4-yl)-1-methyl-1H-indazol-3-yl)dihydropyrimidine-2,4(1H,3H)-dione] |
| < 0.03 | O=C1CCC(Nc2ccc(N3CCN(CCN4CCC(COc5ccc6c(=O)[nH]c(CSC7CCOCC7)nc6c5)CC4)CC3)c(F)c2)C(=O)N1 (stereo not shown) [Example 206, 3-((3-fluoro-4-(4-(2-(4-(((4-oxo-2-(((tetrahydro-2H-pyran-4-yl)thio)methyl)-3,4-dihydroquinazolin-7-yl)oxy)methyl)piperidin-1-yl)ethyl)piperazin-1-yl)phenyl)amino)piperidine-2,6-dione] |
| < 0.03 | Cn1nc(N2CCC(=O)NC2=O)c2cc(F)c(C3CCN(CCN4CCC(COc5cc(F)c6c(=O)[nH]c(CSC7CCOCC7)nc6c5)CC4)CC3)cc21 [Example 207, 1-(5-fluoro-6-(1-(2-(4-(((5-fluoro-4-oxo-2-(((tetrahydro-2H-pyran-4-yl)thio)methyl)-3,4-dihydroquinazolin-7-yl)oxy)methyl)piperidin-1-yl)ethyl)piperidin-4-yl)-1-methyl-1H-indazol-3-yl)dihydropyrimidine-2,4(1H,3H)-dione formate] |
| < 0.03 | O=C1CCN(c2ccc(C3CCN(CCN4CCC(COc5cc(F)c6c(=O)[nH]c(CSC7CCOCC7)nc6c5)CC4)CC3)c(F)c2)C(=O)N1 [Example 208, 1-(3-fluoro-4-(1-(2-(4-(((5-fluoro-4-oxo-2-(((tetrahydro-2H-pyran-4-yl)thio)methyl)-3,4-dihydroquinazolin-7-yl)oxy)methyl)piperidin-1-yl)ethyl)piperidin-4-yl)phenyl)dihydropyrimidine-2,4(1H,3H)-dione] |
| < 0.03 | O=C1CCN(c2cnc3cc(N4CCN(CCN5CCC(COc6cc(F)c7c(=O)[nH]c(CSC8CCOCC8)nc7c6)CC5)CC4)ccn23)C(=O)N1 [Example 209, 1-(7-(4-(2-(4-(((5-fluoro-4-oxo-2-(((tetrahydro-2H-pyran-4-yl)thio)methyl)-3,4-dihydroquinazolin-7-yl)oxy)methyl)piperidin-1-yl)ethyl)piperazin-1-yl)imidazo[1,2-a]pyridin-3-yl)dihydropyrimidine-2,4(1H,3H)-dione diformate] |
| < 0.03 | O=C1CCN(c2cncc3c(N4CCN(CCN5CCC(COc6cc(F)c7c(=O)[nH]c(CSC8CCOCC8)nc7c6)CC5)CC4)cccc23)C(=O)N1 [Example 210, 1-(8-(4-(2-(4-(((5-fluoro-4-oxo-2-(((tetrahydro-2H-pyran-4-yl)thio)methyl)-3,4-dihydroquinazolin-7-yl)oxy)methyl)piperidin-1-yl)ethyl)piperazin-1-yl)isoquinolin-4-yl)dihydropyrimidine-2,4(1H,3H)-dione] |

The next lines start with the molecule.

| Structure (SMILES) | DC50 [µM] |
| --- | --- |
| O=C1CCC(Nc2ccc(N3CCN(CCN4CCC(COc5cc(F)c6c(=O)[nH]c(COC7CCOCC7)nc6c5)CC4)CC3)cc2F)C(=O)N1 (stereo not shown) [Example 192, 3-((2-fluoro-4-(4-(2-(4-(((5-fluoro-4-oxo-2-(((tetrahydro-2H-pyran-4-yl)oxy)methyl)-3,4-dihydroquinazolin-7-yl)oxy)methyl)piperidin-1-yl)ethyl)piperazin-1-yl)phenyl)amino)piperidine-2,6-dione diformate] | < 0.03 |
| O=C1CCC(Nc2ccc(N3CCN(CCN4CC(COc5cc(F)c6c(=O)[nH]c(CSC7CCOCC7)nc6c5)C4)CC3)c(F)c2)C(=O)N1 (stereo not shown) [Example 193, 3-((3-fluoro-4-(4-(2-(3-(((5-fluoro-4-oxo-2-(((tetrahydro-2H-pyran-4-yl)thio)methyl)-3,4-dihydroquinazolin-7-yl)oxy)methyl)azetidin-1-yl)ethyl)piperazin-1-yl)phenyl)amino)piperidine-2,6-dione] | < 0.03 |
| O=C1CCC(Nc2ccc(N3CCN(CCN4CCC(COc5cc(F)c6c(=O)[nH]c(CSC7CCCCC7)nc6c5)CC4)CC3)c(F)c2)C(=O)N1 (stereo not shown) [Example 194, 3-({4-[4-(2-{4-[({2-[(cyclohexylsulfanyl)methyl]-5-fluoro-4-oxo-3H-quinazolin-7-yl}oxy)methyl]piperidin-1-yl}ethyl)piperazin-1-yl]-3-fluorophenyl}amino)piperidine-2,6-dione] | < 0.03 |
| Cn1nc(C2CCC(=O)NC2=O)c2cc(F)c(C3CCN(CCN4CCC(COc5cc(F)c6c(=O)[nH]c(CSC7CCOCC7)nc6c5)CC4)CC3)cc21 (stereo not shown) [Example 195, 3-(5-fluoro-6-(1-(2-(4-(((5-fluoro-4-oxo-2-(((tetrahydro-2H-pyran-4-yl)thio)methyl)-3,4-dihydroquinazolin-7-yl)oxy)methyl)piperidin-1-yl)ethyl)piperidin-4-yl)-1-methyl-1H-indazol-3-yl)piperidine-2,6-dione] | < 0.03 |
| O=C1CCN(c2ccc(N3CCN(CCN4CCC(COc5cc(F)c6c(=O)[nH]c(CSC7CCOCC7)nc6c5)CC4)CC3)c(F)c2)C(=O)N1 [Example 196, 1-(3-fluoro-4-(4-(2-(4-(((5-fluoro-4-oxo-2-(((tetrahydro-2H-pyran-4-yl)thio)methyl)-3,4-dihydroquinazolin-7-yl)oxy)methyl)piperidin-1-yl)ethyl)piperazin-1-yl)phenyl)dihydropyrimidine-2,4(1H,3H)-dione] | < 0.03 |
| O=C1CCN(c2ccc(N3CCN(CCN4CCC(COc5cc(F)c6c(=O)[nH]c(COC7CCOCC7)nc6c5)CC4)CC3)c(F)c2)C(=O)N1 [Example 197, 1-(3-fluoro-4-(4-(2-(4-(((5-fluoro-4-oxo-2-(((tetrahydro-2H-pyran-4-yl)oxy)methyl)-3,4-dihydroquinazolin-7-yl)oxy)methyl)piperidin-1-yl)ethyl)piperazin-1-yl)phenyl)dihydropyrimidine-2,4(1H,3H)-dione] | < 0.03 |
| Cn1nc(N2CCC(=O)NC2=O)c2cc(F)c(C3CCN(CCN4CCC(COc5cc(F)c6c(=O)[nH]c(COC7CCOCC7)nc6c5)CC4)CC3)cc21 [Example 198, 1-(5-fluoro-6-(1-(2-(4-(((5-fluoro-4-oxo-2-(((tetrahydro-2H-pyran-4-yl)oxy)methyl)-3,4-dihydroquinazolin-7-yl)oxy)methyl)piperidin-1-yl)ethyl)piperidin-4-yl)-1-methyl-1H-indazol-3-yl)dihydropyrimidine-2,4(1H,3H)-dione] | < 0.03 |
| O=C1CCC(Nc2ccc(NC(=O)[C@H]3CCN(CCN4CCC(COc5cc(F)c6c(=O)[nH]c(COC7CCOCC7)nc6c5)CC4)C3)c(F)c2)C(=O)N1 (stereo partly drawn) [Example 199, (3S)-N-(4-((2,6-dioxopiperidin-3-yl)amino)-2-fluorophenyl)-1-(2-(4-(((5-fluoro-4-oxo-2-(((tetrahydro-2H-pyran-4-yl)oxy)methyl)-3,4-dihydroquinazolin-7-yl)oxy)methyl)piperidin-1-yl)ethyl)pyrrolidine-3-carboxamide] | < 0.03 |
| O=C1CCC(Nc2ccc(NC(=O)[C@@H]3CCN(CCN4CCC(COc5cc(F)c6c(=O)[nH]c(COC7CCOCC7)nc6c5)CC4)C3)c(F)c2)C(=O)N1 (stereo partly drawn) [Example 200, (3R)-N-(4-((2,6-dioxopiperidin-3-yl)amino)-2-fluorophenyl)-1-(2-(4-(((5-fluoro-4-oxo-2-(((tetrahydro-2H-pyran-4-yl)oxy)methyl)-3,4-dihydroquinazolin-7-yl)oxy)methyl)piperidin-1-yl)ethyl)pyrrolidine-3-carboxamide] | < 0.03 |
| O=C1CCC(Nc2ccc(NC(=O)C3CCN(CCN4CCC(COc5cc(F)c6c(=O)[nH]c(COC7CCOCC7)nc6c5)CC4)CC3)c(F)c2)C(=O)N1 (stereo not shown) [Example 201, N-(4-((2,6-dioxopiperidin-3-yl)amino)-2-fluorophenyl)-1-(2-(4-(((5-fluoro-4-oxo-2-(((tetrahydro-2H-pyran-4-yl)oxy)methyl)-3,4-dihydroquinazolin-7-yl)oxy)methyl)piperidin-1-yl)ethyl)piperidine-4-carboxamide] | < 0.03 |
| CN(C(=O)C1CCN(CCN2CCC(COc3cc(F)c4c(=O)[nH]c(COC5CCOCC5)nc4c3)CC2)CC1)c1ccc(NC2CCC(=O)NC2=O)cc1F (stereo not shown) [Example 202, N-(4-((2,6-dioxopiperidin-3-yl)amino)-2-fluorophenyl)-1-(2-(4-(((5-fluoro-4-oxo-2-(((tetrahydro-2H-pyran-4-yl)oxy)methyl)-3,4-dihydroquinazolin-7-yl)oxy)methyl)piperidin-1-yl)ethyl)-N-methylpiperidine-4-carboxamide] | < 0.03 |
